Assay results from ChEMBL document CHEMBL1201861, “Genomics of Drug Sensitity in Cancer screening data, Wellcome Trust Sanger Institute”.

Tests used:
NCI-H441 = assay: cells; format: functional, cell-based; conditions: Homo sapiens;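 further: growth inhibition of NCI-H441 cells, read out with a cell viability assay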
Description: SANGER: Inhibition of human NCI-H441 cell growth in a cell viability assay.

NB1 = assay: cells; format: functional, cell-based; conditions: Homo sapiens;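 further: reduction of NB1 cell proliferation, read out with a viability assay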
Description: SANGER: Inhibition of human NB1 cell growth in a cell viability assay.

DoTc2-4510 = assay: cells; format: functional, cell-based; conditions: Homo sapiens
ChaGo-K-1 = assay: cells; format: functional, cell-based; conditions: Homo sapiens;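 further: growth inhibition of ChaGo-K-1 cells, read out with a cell viability assay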
Description: SANGER: Inhibition of human ChaGo-K-1 cell growth in a cell viability assay.

IST-SL2 = assay: cells; format: functional, cell-based; conditions: Homo sapiens;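 further: growth inhibition of human IST-SL2 cells, read out by a cell viability assay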
Description: SANGER: Inhibition of human IST-SL2 cell growth in a cell viability assay.

SCC-9 = assay: cells; format: functional, cell-based; conditions: Homo sapiens;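 further: Read-out is a cell viability assay, with values giving inhibition of cell growth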
Description: SANGER: Inhibition of human SCC-9 cell growth in a cell viability assay.

FaDu = assay: cells; format: functional, cell-based; conditions: Homo sapiens;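 further: cell viability readout of growth inhibition in FaDu cells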
Description: SANGER: Inhibition of human FADU cell growth in a cell viability assay.

PFSK-1 = assay: cells; format: functional, cell-based; conditions: Homo sapiens;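 further: cell viability assay measuring how strongly compounds suppress growth of human PFSK-1 cells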
Description: SANGER: Inhibition of human PFSK-1 cell growth in a cell viability assay.

LC-1F = assay: cells; format: functional, cell-based; conditions: Homo sapiens;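 further: growth inhibition of human LC-1F cells, read out with a cell viability assay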
Description: SANGER: Inhibition of human LC-1F cell growth in a cell viability assay.

RT-112 = assay: cells; format: functional, cell-based; conditions: Homo sapiens
Description: SANGER: Inhibition of human RT-112 cell growth in a cell viability assay.

T47D = assay: cells; format: functional, cell-based; conditions: Homo sapiens;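 further: growth inhibition of human T47D cells, measured with a cell viability assay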
Description: SANGER: Inhibition of human T47D cell growth in a cell viability assay.

MKN-7 = assay: cells; format: functional, cell-based; conditions: Homo sapiens;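 further: growth inhibition of MKN-7 cells, read out with a cell viability assay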
Description: SANGER: Inhibition of human MKN7 cell growth in a cell viability assay.

THP-1 = assay: cells; format: functional, cell-based; conditions: Homo sapiens;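 further: growth inhibition of THP-1 cells, read out via a cell viability assay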
Description: SANGER: Inhibition of human THP-1 cell growth in a cell viability assay.

CWR22R = assay: cells; format: functional, cell-based; conditions: Homo sapiens, 22Rv1;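 further: growth inhibition of 22Rv1 cells, read out with a cell viability assay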
Description: SANGER: Inhibition of human 22RV1 cell growth in a cell viability assay.

HT-29 = assay: cells; format: functional, cell-based; conditions: Homo sapiens;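 further: growth inhibition of human HT-29 cells, read out by a cell viability assay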
Description: SANGER: Inhibition of human HT-29 cell growth in a cell viability assay.

CAL-148 = assay: cells; format: functional, cell-based; conditions: Homo sapiens
Description: SANGER: Inhibition of human CAL-148 cell growth in a cell viability assay.

HT1197 = assay: cells; format: functional, cell-based, HT-1197; conditions: Homo sapiens
Description: SANGER: Inhibition of human HT-1197 cell growth in a cell viability assay.

COR-L279 = assay: SANGER: Inhibition of human COR-L279 cell growth in a cell viability assay.; format: functional, cell-based
Huh-7 = assay: cells; format: functional, cell-based; conditions: Homo sapiens;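 further: HuH-7 cell growth inhibition, read out with a cell viability assay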
Description: SANGER: Inhibition of human HuH-7 cell growth in a cell viability assay.

A673 = assay: cells; format: functional, cell-based; conditions: Homo sapiens;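 further: growth inhibition of human A673 cells, read out through a cell viability assay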
Description: SANGER: Inhibition of human A673 cell growth in a cell viability assay.

SK-LU-1 = assay: cells; format: functional, cell-based; conditions: Homo sapiens;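 further: cell viability assay measuring growth inhibition of human SK-LU-1 cells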
Description: SANGER: Inhibition of human SK-LU-1 cell growth in a cell viability assay.

MKN-28 = assay: cells; format: functional, cell-based; conditions: Homo sapiens;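 further: cell viability assay read-out, IC50 reflects suppression of growth of human MKN-28 cells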
Description: SANGER: Inhibition of human MKN28 cell growth in a cell viability assay.

5637 = assay: cells; format: functional, cell-based; conditions: Homo sapiens
Description: SANGER: Inhibition of human 5637 cell growth in a cell viability assay.

LCLC-103H cell line = assay: cells; format: functional, cell-based; conditions: Homo sapiens
Description: SANGER: Inhibition of human LCLC-103H cell growth in a cell viability assay.

Raji = assay: cells; format: functional, cell-based; conditions: Homo sapiens;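 further: cell viability assay measuring inhibition of Raji cell growth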
Description: SANGER: Inhibition of human Raji cell growth in a cell viability assay.

NCI-H1793 = assay: cells; format: functional, cell-based; conditions: Homo sapiens;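 further: cell growth inhibition, read out by a cell viability assay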
Description: SANGER: Inhibition of human NCI-H1793 cell growth in a cell viability assay.

CAL-33 = assay: cells; format: functional, cell-based; conditions: Homo sapiens;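 further: growth inhibition of CAL-33 cells, read out with a cell viability assay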
Description: SANGER: Inhibition of human CAL-33 cell growth in a cell viability assay.

NCI-H2141 = assay: cells; format: functional, cell-based; conditions: Homo sapiens;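 further: growth inhibition of human NCI-H2141 cells, read out with a cell viability assay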
Description: SANGER: Inhibition of human NCI-H2141 cell growth in a cell viability assay.

TGW = assay: cells; format: functional, cell-based; conditions: Homo sapiens;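 further: growth inhibition of human TGW cells, read out with a cell viability assay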
Description: SANGER: Inhibition of human TGW cell growth in a cell viability assay.

G-361 = assay: cells; format: functional, cell-based; conditions: Homo sapiens
YKG-1 = assay: cells; format: functional, cell-based; conditions: Homo sapiens;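 further: cell growth inhibition, read out with a viability assay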
Description: SANGER: Inhibition of human YKG-1 cell growth in a cell viability assay.

GAMG = assay: cells; format: functional, cell-based; conditions: Homo sapiens;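 further: cell growth inhibition measured by a viability assay in the GAMG human cell line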
Description: SANGER: Inhibition of human GAMG cell growth in a cell viability assay.

TUR = assay: cells; format: functional, cell-based; conditions: Homo sapiens;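 further: growth inhibition of human TUR cells, read out with a cell viability assay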
Description: SANGER: Inhibition of human TUR cell growth in a cell viability assay.

NUGC-3 = assay: cells; format: functional, cell-based; conditions: Homo sapiens;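 further: growth inhibition of human NUGC-3 cells, read out with a cell viability assay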
Description: SANGER: Inhibition of human NUGC-3 cell growth in a cell viability assay.

NCI-H322M = assay: cells; format: functional, cell-based; conditions: Homo sapiens;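 further: cell viability assay measuring inhibition of growth of human NCI-H322M cells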
Description: SANGER: Inhibition of human NCI-H322M cell growth in a cell viability assay.

SAS = assay: cells; format: functional, cell-based; conditions: Homo sapiens;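 further: growth inhibition of SAS cells, read out with a cell viability assay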
Description: SANGER: Inhibition of human SAS cell growth in a cell viability assay.

HSC-2 = assay: cells; format: functional, cell-based; conditions: Homo sapiens;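 further: growth inhibition of human HSC-2 cells, read out by a cell viability assay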
Description: SANGER: Inhibition of human HSC-2 cell growth in a cell viability assay.

MDA-MB-175-VII = assay: cells; format: functional, cell-based; conditions: Homo sapiens
NCI-H1417 = assay: cells; format: functional, cell-based; conditions: Homo sapiens;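 further: human NCI-H1417 cells, growth inhibition determined with a cell viability readout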
Description: SANGER: Inhibition of human NCI-H1417 cell growth in a cell viability assay.

KYSE-180 = assay: cells; format: functional, cell-based; conditions: Homo sapiens;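 further: growth inhibition of KYSE-180 cells, read out with a cell viability assay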
Description: SANGER: Inhibition of human KYSE-180 cell growth in a cell viability assay.

C3A = assay: cells; format: functional, cell-based; conditions: Homo sapiens;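 further: growth inhibition of C3A human cells, quantified with a cell viability readout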
Description: SANGER: Inhibition of human C3A cell growth in a cell viability assay.

ACHN = assay: cells; format: functional, cell-based; conditions: Homo sapiens;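 further: cell viability read-out used to gauge how strongly growth of human ACHN cells is suppressed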
Description: SANGER: Inhibition of human ACHN cell growth in a cell viability assay.

A-431 = assay: cells; format: functional, cell-based; conditions: Homo sapiens;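 further: growth inhibition of A-431 cells, determined with a cell viability read-out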
Description: SANGER: Inhibition of human A431 cell growth in a cell viability assay.

BHT-101 = assay: cells; format: functional, cell-based; conditions: Homo sapiens
Description: SANGER: Inhibition of human BHT-101 cell growth in a cell viability assay.

SK-MEL3 = assay: cells; format: functional, cell-based, SK-MEL-3; conditions: Homo sapiens;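 further: growth inhibition of human SK-MEL-3 cells, read out with a cell viability assay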
Description: SANGER: Inhibition of human SK-MEL-3 cell growth in a cell viability assay.

NCI-H1755 = assay: cells; format: functional, cell-based; conditions: Homo sapiens;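 further: cell viability readout used to measure growth inhibition of NCI-H1755 cells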
Description: SANGER: Inhibition of human NCI-H1755 cell growth in a cell viability assay.

HCC38 = assay: cells; format: functional, cell-based; conditions: Homo sapiens;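 further: cell viability assay on the human HCC38 cell line, with IC50 marking the concentration that inhibits cell growth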
Description: SANGER: Inhibition of human HCC38 cell growth in a cell viability assay.

Panc1005 = assay: cells; format: functional, cell-based; conditions: Homo sapiens;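 further: growth inhibition of human PANC-10-05 cells, measured by a cell viability assay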
Description: SANGER: Inhibition of human PANC-10-05 cell growth in a cell viability assay.

LoVo = assay: cells; format: functional, cell-based; conditions: Homo sapiens;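 further: growth inhibition of human LoVo cells, read out with a cell viability assay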
Description: SANGER: Inhibition of human LoVo cell growth in a cell viability assay.

PC-3 = assay: cells; format: functional, cell-based; conditions: Homo sapiens;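 further: cell viability assay measuring growth inhibition of PC-3 cells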
Description: SANGER: Inhibition of human PC-3 cell growth in a cell viability assay.

H4 = assay: cells; format: functional, cell-based; conditions: Homo sapiens
Description: SANGER: Inhibition of human H4 cell growth in a cell viability assay.

M14 = assay: cells; format: functional, cell-based; conditions: Homo sapiens;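 further: growth inhibition of M14 cells, read out with a cell viability assay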
Description: SANGER: Inhibition of human M14 cell growth in a cell viability assay.

SR = assay: cells; format: functional, cell-based; conditions: Homo sapiens
Description: SANGER: Inhibition of human SR cell growth in a cell viability assay.

OPM-2 = assay: cells; format: functional, cell-based; conditions: Homo sapiens;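 further: growth of OPM-2 cells measured with a viability assay, IC50 for suppression of proliferation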
Description: SANGER: Inhibition of human OPM-2 cell growth in a cell viability assay.

MEL-JUSO = assay: cells; format: functional, cell-based; conditions: Homo sapiens;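 further: growth inhibition of human MEL-JUSO cells, read out with a cell viability assay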
Description: SANGER: Inhibition of human MEL-JUSO cell growth in a cell viability assay.

C-33-A = assay: cells; format: functional, cell-based; conditions: Homo sapiens;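 further: cell viability assay measuring growth inhibition of C-33-A cells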
Description: SANGER: Inhibition of human C-33-A cell growth in a cell viability assay.

Capan-2 = assay: cells; format: functional, cell-based; conditions: Homo sapiens;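 further: Capan-2 cell growth inhibition, read out with a viability assay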
Description: SANGER: Inhibition of human Capan-2 cell growth in a cell viability assay.

SW1783 = assay: cells; format: functional, cell-based; conditions: Homo sapiens
Description: SANGER: Inhibition of human SW1783 cell growth in a cell viability assay.

ASPC1 = assay: cells; format: functional, cell-based; conditions: Homo sapiens;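 further: growth inhibition of AsPC-1 cells, read out with a cell viability assay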
Description: SANGER: Inhibition of human AsPC-1 cell growth in a cell viability assay.

SW837 = assay: cells; format: functional, cell-based; conditions: Homo sapiens;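 further: growth inhibition of SW837 cells, determined with a cell viability assay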
Description: SANGER: Inhibition of human SW837 cell growth in a cell viability assay.

BCPAP = assay: cells; format: functional, cell-based; conditions: Homo sapiens
Description: SANGER: Inhibition of human BCPAP cell growth in a cell viability assay.

HCC1806 = assay: cells; format: functional, cell-based; conditions: Homo sapiens
Description: SANGER: Inhibition of human HCC1806 cell growth in a cell viability assay.

Daudi = assay: cells; format: functional, cell-based; conditions: Homo sapiens
Description: SANGER: Inhibition of human Daudi cell growth in a cell viability assay.

CCNC(=O)c1noc(-c2cc(C(C)C)c(O)cc2O)c1-c1ccc(CN2CCOCC2)cc1 [LUMINESPIB]
IC50 (NCI-H441): 109 nM
IC50 (NB1): 144 nM
IC50 (DoTc2-4510): 21.2 nM
IC50 (ChaGo-K-1): 127 nM
IC50 (IST-SL2): 57.4 nM
IC50 (SCC-9): 58.7 nM
IC50 (FaDu): 67.4 nM
IC50 (PFSK-1): 103 nM
IC50 (LC-1F): > 256 nM
IC50 (RT-112): 5.35 nM
IC50 (T47D): > 256 nM
IC50 (MKN-7): > 256 nM
IC50 (THP-1): 153 nM
IC50 (CWR22R): 35.1 nM
IC50 (HT-29): 43.6 nM
IC50 (CAL-148): 243 nM
IC50 (HT1197): 16.8 nM
IC50 (COR-L279): 158 nM
IC50 (Huh-7): 70.3 nM
IC50 (A673): 104 nM
IC50 (SK-LU-1): 18.5 nM
IC50 (MKN-28): 30.1 nM
IC50 5637: 28.2 nM
IC50 (LCLC-103H cell line): 4.3 nM
IC50 (Raji): > 256 nM
IC50 (NCI-H1793): > 256 nM
IC50 (CAL-33): 43.8 nM
IC50 (NCI-H2141): 238 nM
IC50 (TGW): 165 nM
IC50 (G-361): 26.8 nM
IC50 (YKG-1): 11.6 nM
IC50 (GAMG): 13.7 nM
IC50 (TUR): 77.3 nM
IC50 (NUGC-3): 48.3 nM
IC50 (NCI-H322M): > 256 nM
IC50 (SAS): 92.1 nM
IC50 (HSC-2): 5.18 nM
IC50 (MDA-MB-175-VII): > 256 nM
IC50 (NCI-H1417): 48.9 nM
IC50 (KYSE-180): 5.86 nM
IC50 (C3A): 24.8 nM
IC50 (ACHN): 23.5 nM
IC50 (A-431): 6.07 nM
IC50 (BHT-101): 58.8 nM
IC50 (SK-MEL3): 48 nM
IC50 (NCI-H1755): 138 nM
IC50 (HCC38): 37.7 nM
IC50 (Panc1005): 17.5 nM
IC50 (LoVo): 39.3 nM
IC50 (PC-3): 132 nM
IC50 (H4): 13.7 nM
IC50 (M14): 218 nM
IC50 (SR): 27.9 nM
IC50 (OPM-2): > 256 nM
IC50 (MEL-JUSO): 16.8 nM
IC50 (C-33-A): 15.1 nM
IC50 (Capan-2): 6.38 nM
IC50 (SW1783): 5.91 nM
IC50 (ASPC1): > 256 nM
IC50 (SW837): 30.1 nM
IC50 (BCPAP): 26.5 nM
IC50 (HCC1806): 111 nM
IC50 (Daudi): 33.8 nM

CC(O)(CS(=O)(=O)c1ccc(F)cc1)C(=O)Nc1ccc(C#N)c(C(F)(F)F)c1 (stereo unspecified) [BICALUTAMIDE]
IC50 (NCI-H441): > 1020 nM
IC50 (NB1): > 1020 nM
IC50 (DoTc2-4510): > 1020 nM
IC50 (ChaGo-K-1): > 1020 nM
IC50 (IST-SL2): > 1020 nM
IC50 (SCC-9): > 1020 nM
IC50 (FaDu): > 1020 nM
IC50 (PFSK-1): > 1020 nM
IC50 (LC-1F): > 1020 nM
IC50 (RT-112): > 1020 nM
IC50 (T47D): > 1020 nM
IC50 (MKN-7): > 1020 nM
IC50 (THP-1): > 1020 nM
IC50 (CWR22R): > 1020 nM
IC50 (HT-29): > 1020 nM
IC50 (CAL-148): > 1020 nM
IC50 (HT1197): > 1020 nM
IC50 (COR-L279): > 1020 nM
IC50 (Huh-7): > 1020 nM
IC50 (A673): > 1020 nM
IC50 (SK-LU-1): > 1020 nM
IC50 (MKN-28): > 1020 nM
IC50 5637: > 1020 nM
IC50 (LCLC-103H cell line): > 1020 nM
IC50 (Raji): > 1020 nM
IC50 (NCI-H1793): > 1020 nM
IC50 (CAL-33): > 1020 nM
IC50 (NCI-H2141): > 1020 nM
IC50 (TGW): > 1020 nM
IC50 (G-361): > 1020 nM
IC50 (YKG-1): > 1020 nM
IC50 (GAMG): > 1020 nM
IC50 (TUR): > 1020 nM
IC50 (NUGC-3): > 1020 nM
IC50 (NCI-H322M): > 1020 nM
IC50 (SAS): > 1020 nM
IC50 (HSC-2): > 1020 nM
IC50 (MDA-MB-175-VII): > 1020 nM
IC50 (NCI-H1417): > 1020 nM
IC50 (KYSE-180): > 1020 nM
IC50 (C3A): > 1020 nM
IC50 (ACHN): > 1020 nM
IC50 (A-431): > 1020 nM
IC50 (BHT-101): > 1020 nM
IC50 (SK-MEL3): > 1020 nM
IC50 (NCI-H1755): > 1020 nM
IC50 (HCC38): > 1020 nM
IC50 (Panc1005): > 1020 nM
IC50 (LoVo): > 1020 nM
IC50 (PC-3): > 1020 nM
IC50 (H4): > 1020 nM
IC50 (M14): > 1020 nM
IC50 (SR): > 1020 nM
IC50 (OPM-2): > 1020 nM
IC50 (MEL-JUSO): > 1020 nM
IC50 (C-33-A): > 1020 nM
IC50 (Capan-2): > 1020 nM
IC50 (SW1783): > 1020 nM
IC50 (ASPC1): > 1020 nM
IC50 (SW837): > 1020 nM
IC50 (BCPAP): > 1020 nM
IC50 (HCC1806): > 1020 nM
IC50 (Daudi): > 1020 nM
